Target: HIS-TGF-βR1 T204D (Homo sapiens (Human), UniProt P36897, T204D)
Experiment: HTRF probe displacement assay with HIS-TGF-βR1 T204D
Conditions: read-out: TGFbr1 IC50; HTRF probe displacement, 1 nM HIS-TGF-βR1 T204D, 1 hour at room temperature

HIS-TGF-βR1 T204D, sequence (P36897 34-503 T204D): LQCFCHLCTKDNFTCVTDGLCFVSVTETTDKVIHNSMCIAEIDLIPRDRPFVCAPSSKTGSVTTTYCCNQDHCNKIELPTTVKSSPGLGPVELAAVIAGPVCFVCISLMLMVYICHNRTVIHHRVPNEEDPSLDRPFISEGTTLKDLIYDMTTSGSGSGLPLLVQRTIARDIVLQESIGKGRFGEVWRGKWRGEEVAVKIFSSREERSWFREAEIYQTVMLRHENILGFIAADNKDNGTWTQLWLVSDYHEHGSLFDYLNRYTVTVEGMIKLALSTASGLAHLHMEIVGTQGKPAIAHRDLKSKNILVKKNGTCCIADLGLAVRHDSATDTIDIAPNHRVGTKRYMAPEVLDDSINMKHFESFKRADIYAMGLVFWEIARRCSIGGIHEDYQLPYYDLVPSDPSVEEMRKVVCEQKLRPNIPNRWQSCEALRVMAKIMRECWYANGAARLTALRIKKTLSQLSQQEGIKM

N#Cc1cnc2ccc(-c3c(-c4ccc(F)c(Cl)c4)ncn3CCO)nn12 [Example 32′, 6-(4-(3-chloro-4-fluorophenyl)-1-(2-hydroxyethyl)-1H-imidazol-5-yl)imidazo[1,2-b]pyridazine-3-carbonitrile]
IC50: 1.8 nM

N#Cc1cnc2ccc(-c3c(-c4ccc(F)c(Cl)c4)ncn3[C@H]3C[C@@H](O)C3)nn12 [Example 39′, 6-(4-(3-chloro-4-fluorophenyl)-1-((cis)-3-hydroxycyclobutyl)-1H-imidazol-5-yl)imidazo[1,2-b]pyridazine-3-carbonitrile]
IC50: 0.9 nM

CC[C@@H](CF)n1cnc(-c2ccc(F)cc2)c1-c1ccc2ncc(C#N)n2n1 [Example 103′, (S)-6-(1-(1-fluorobutan-2-yl)-4-(4-fluorophenyl)-1H-imidazol-5-yl)imidazo[1,2-b]pyridazine-3-carbonitrile]
IC50: 1.8 nM

N#Cc1cnc2ccc(-c3c(-c4ccc(F)c(Cl)c4)ncn3C3CC(F)C3)nn12 (stereo not drawn) [Example 104′, 6-(4-(3-chloro-4-fluorophenyl)-1-(3-fluorocyclobutyl)-1H-imidazol-5-yl)imidazo[1,2-b]pyridazine-3-carbonitrile]
IC50: 0.5 nM

NC(=O)c1cnc2ccc(-c3c(-c4ccc(F)cc4)ncn3[C@H]3C[C@@H](O)C3)nn12 [Example 123′]
IC50: 4.2 nM

N#CC1(n2cnc(-c3ccc(F)cc3)c2-c2ccc3nccn3n2)CC1 [Example 188′, 1-(4-(4-fluorophenyl)-5-(imidazo[1,2-b]pyridazin-6-yl)-1H-imidazol-1-yl)cyclopropanecarbonitrile]
IC50: 2 nM

Fc1ccc(-c2ncn(C3(C(F)F)CC3)c2-c2ccc3nccn3n2)cc1 [Example 189′, 6-(1-(1-(difluoromethyl)cyclopropyl)-4-(4-fluorophenyl)-1H-imidazol-5-yl)imidazo[1,2-b]pyridazine]
IC50: 1.6 nM

CNCc1cnc2ccc(-c3c(-c4ccc(F)cc4)ncn3CC(F)F)nn12 [Example 196′]
IC50: 23.8 nM

N=C(NO)c1cnc2ccc(-c3c(-c4ccc(F)cc4)ncn3CC(F)F)nn12 [Example 203′, 6-(1-(2,2-difluoroethyl)-4-(4-fluorophenyl)-1H-imidazol-5-yl)-N-hydroxyimidazo[1,2-b]pyridazine-3-carboximidamide]
IC50: 1.1 nM

CC(C)(O)c1cnc2ccc(-c3c(-c4ccc(F)cc4)ncn3CC(F)F)nn12 [Example 204′, 2-(6-(1-(2,2-difluoroethyl)-4-(4-fluorophenyl)-1H-imidazol-5-yl)imidazo[1,2-b]pyridazin-3-yl)propan-2-ol]
IC50: 1.2 nM

NNC(=O)c1cnc2ccc(-c3c(-c4ccc(F)cc4)ncn3CC(F)F)nn12 [Example 205′, 6-(1-(2,2-difluoroethyl)-4-(4-fluorophenyl)-1H-imidazol-5-yl)imidazo[1,2-b]pyridazine-3-carbohydrazide]
IC50: 1.8 nM

OCc1cnc2ccc(-c3c(-c4ccc(F)cc4)ncn3CC(F)F)nn12 [Example 210′, (6-(1-(2,2-difluoroethyl)-4-(4-fluorophenyl)-1H-imidazol-5-yl)imidazo[1,2-b]pyridazin-3-yl)methanol]
IC50: 2.2 nM

CC(=O)Nc1cnc2ccc(-c3c(-c4ccc(F)cc4)ncn3CC(F)F)nn12 [Example 212′, N-(6-(1-(2,2-difluoroethyl)-4-(4-fluorophenyl)-1H-imidazol-5-yl)imidazo[1,2-b]pyridazin-3-yl)acetamide]
IC50: 9.3 nM

CC(O)c1cnc2ccc(-c3c(-c4ccc(F)cc4)ncn3CC(F)F)nn12 (stereo not drawn) [Example 214′, 1-(6-(1-(2,2-difluoroethyl)-4-(4-fluorophenyl)-1H-imidazol-5-yl)imidazo[1,2-b]pyridazin-3-yl)ethanol]
IC50: 1.1 nM

Fc1ccc(-c2ncn(CC(F)F)c2-c2ccc3ncc(C(F)F)n3n2)cc1 [Example 215′, 6-(1-(2,2-difluoroethyl)-4-(4-fluorophenyl)-1H-imidazol-5-yl)-3-(difluoromethyl)imidazo[1,2-b]pyridazine]
IC50: 0.8 nM

Source: patent US9884868B2, “TGF-beta inhibitors” (Rigel Pharmaceuticals, Inc., priority 2015, dated 2018)
